40 compounds from patent US20100190778A1, “3,4-DIHYDROBENZO[1,2,3]THIADIAZINE-1,1-DIOXIDE DERIVATIVES, PROCESS FOR PREPARATION THEREOF, MEDICAMENTS CONTAINING SAID DERIVATIVES AND THEIR USE” (EGIS GYOGYSZERGYAR NYILVANOSAN MUKODO RESZVENTARSASAG, priority 2006, published 2010) can be followed below.

One series relates to male Sprague-Dawley rats. The series can be described thus: elevated maze test in the rat (anxiolytic effect). The settings on record: per os, 60-min pretreatment, 5-min measurement, MED regarding time spent in the open arms and number of entries into the open arms. It counts as in vivo. The method, then: Pharmacological activity of the compounds of the general Formula (I) has been evaluated in elevated maze test in the rat.
The tests were carried out according to the method of S. Fellow and coworkers (J. Neurosci. Methods. 1985, 14, 149-167). During the test, a wooden-floor cross elevated by 50 cm from the ground was used. The length and the width of the arms of the cross were 100 and 15 cm, respectively. Two opposite arms of the cross are fitted at the ends and both sides with black plexiglass wall of 40 cm height (closed arms). The central section of the cross measuring 15 by 15 cm is open. The other two opposite arms of the cross are not provided with walls (open arms).
The tests were carried out in male Sprague-Dawley rats weighing 200 to 220 g. After the 60-min pretreatment time (per os treatment), animals were placed in the center of the maze. During the 5-min measurement time, four variables were recorded: the time spent in the open arms; the time spent in the closed arms; the number of entries into the open arms; the number of entries into the closed arms.
Animals normally avoid the open and light parts of the maze, thereby spending little time therein only. The anxiolytic effect of the compounds of the general Formula (I) is indicated by the increase in the time spent (in seconds) in the open arms and/or by the increase in the number of the entries into the open compartments of the maze. The minimum effective dose (MED) was determined for each tested compounds regarding the time spent in the open arms and the number of entries into the open arms. During the test, the known anxiolytic compound I-methyl-5-phenyl-7-chloro-1,3-dihydro-2H-1,4-benzodiazepin-2-one (INN: diazepam) of the Formula (IV)
was used. Treatment of the animals was carried out orally with the doses 0.1, 0.3, 1.0, 3.0 for diazepam and 0.01, 0.1, 1.0 mg/kg for the compounds of the general Formula (I).
On to `CN1C(=O)CN=C(c2ccccc2)c2cc(Cl)ccc21` [Diazepam, I-methyl-5-phenyl-7-chloro-1,3-dihydro-2H-1,4-benzodiazepin-2-one, reference compound], for which the “MED (minimum effective dose), anxiolytic effect in elevated maze test” value (“MED (minimum effective dose)” below) is reported as 1.00 mg/kg p.o.

As for `CC1NNS(=O)(=O)c2cc(Cl)ccc21` (stereo not drawn) [Example 1, 7-chloro-4-methyl-3,4-dihydrobenzo[1,2,3]thiadiazine-1,1-dioxide], the “MED (minimum effective dose)” value is 0.3 mg/kg p.o.

In the case of `CC1NNS(=O)(=O)c2c1ccc(Cl)c2Cl` (stereo not drawn) [Example 3, 7,8-Dichloro-4-methyl-3,4-dihydrobenzo[1,2,3]thiadiazine-1,1-dioxide], the “MED (minimum effective dose)” value is 0.01 mg/kg p.o.

Test system in another series: not given
Test: not given
Conditions: not given
Broadly, the melting point is the temperature, or range, at which the solid turns liquid. Take `CC1NNS(=O)(=O)c2cc(Cl)ccc21` (stereo not drawn) [Example 1, 7-chloro-4-methyl-3,4-dihydrobenzo[1,2,3]thiadiazine-1,1-dioxide]: the melting point lay within 155 to 156 °C.

The compound `CCC1NNS(=O)(=O)c2cc(Cl)ccc21` (stereo not drawn) [Example 2, 4-Ethyl-7-chloro-3,4-dihydrobenzo[1,2,3]thiadiazine-1,1-dioxide] showed a melting point of 128 to 130 °C.

With `CC1NNS(=O)(=O)c2c1ccc(Cl)c2Cl` (stereo not drawn) [Example 3, 7,8-Dichloro-4-methyl-3,4-dihydrobenzo[1,2,3]thiadiazine-1,1-dioxide], the melting point was 261 to 263 °C.

Compound `CCC1NNS(=O)(=O)c2c1ccc(Cl)c2Cl` (stereo not drawn) [Example 4, 7,8-Dichloro-4-ethyl-3,4-dihydrobenzo[1,2,3]thiadiazine-1,1-dioxide] returned a melting point of 222 to 224 °C.

`Cc1cc2c(c(Cl)c1Cl)S(=O)(=O)NNC2C` (stereo not drawn) [Example 6, 7,8-Dichloro-4,6-dimethyl-3,4-dihydrobenzo[1,2,3]thiadiazine-1,1-dioxide] displayed a melting point of 253 to 254 °C.

In the case of `CC1NNS(=O)(=O)c2c(Cl)cccc21` (stereo not drawn) [Example 7, 8-chloro-4-methyl-3,4-dihydrobenzo[1,2,3]thiadiazine-1,1-dioxide], the melting point lay within 202 to 203 °C.

Compound `CC1NNS(=O)(=O)c2ccccc21` (stereo not drawn) [Example 8, 4-Methyl-3,4-dihydrobenzo[1,2,3]thiadiazine-1,1-dioxide] came in with a melting point of 150 to 152 °C.

Compound `COc1ccc2c(c1Cl)S(=O)(=O)NNC2C` (stereo not drawn) [Example 9, 8-chloro-4-methyl-7-methoxy-3,4-dihydrobenzo[1,2,3]thiadiazine-1,1-dioxide] gave a melting point of 231 to 233 °C.

Compound `COc1ccc2c(c1OC)S(=O)(=O)NNC2C` (stereo not drawn) [Example 10, 7,8-Dimethoxy-4-methyl-3,4-dihydrobenzo[1,2,3]thiadiazine-1,1-dioxide] returned a melting point of 211 to 213 °C.

Compound `COc1cccc2c1S(=O)(=O)NNC2C` (stereo not drawn) [Example 11, 4-Methyl-8-methoxy-3,4-dihydrobenzo[1,2,3]thiadiazine-1,1-dioxide] gave a melting point of 231 to 233 °C.

`COc1ccc2c(c1)CNNS2(=O)=O` [Example 13, 6-Methoxy-3,4-dihydrobenzo[1,2,3]thiadiazine-1,1-dioxide] registered a melting point of 181 to 182 °C.

Turning to `O=S1(=O)NNCc2ccccc21` [Example 14, 3,4-Dihydrobenzo[1,2,3]thiadiazine-1,1-dioxide], the melting point fell in the range of 134 to 136 °C.

With `COc1ccc2c(c1Cl)S(=O)(=O)NNC2` [Example 15, 8-chloro-7-methoxy-3,4-dihydrobenzo[1,2,3]thiadiazine-1,1-dioxide], the melting point lay within 209 to 210 °C.

As to `CCC1NN(C)S(=O)(=O)c2c1ccc(Cl)c2Cl` (stereo not drawn) [Example 17, 7,8-Dichloro-4-ethyl-2-methyl-3,4-dihydrobenzo[1,2,3]thiadiazine-1,1-dioxide], the melting point was in the range of 139 to 141 °C.

Regarding `Cc1cc(Cl)c(Cl)c2c1C(C)NN(C)S2(=O)=O` (stereo not drawn) [Example 18, 7,8-Dichloro-2,4,5-trimethyl-3,4-dihydrobenzo[1,2,3]thiadiazine-1,1-dioxide], the melting point was in the range of 101 to 102 °C.

Consider `COc1ccc2c(c1Cl)S(=O)(=O)N(C)NC2C` (stereo not drawn) [Example 19, 2,4-Dimethyl-8-chloro-7-methoxy-3,4-dihydrobenzo[1,2,3]thiadiazine-1,1-dioxide], for which the melting point lay in the range of 141 to 143 °C.

For `CCN1NC(C)c2ccc(Cl)c(Cl)c2S1(=O)=O` (stereo not drawn) [Example 21, 7,8-Dichloro-2-ethyl-4-methyl-3,4-dihydrobenzo[1,2,3]thiadiazine-1,1-dioxide], the melting point fell in the range of 135 to 136 °C.

Consider `CCC1NN(CC)S(=O)(=O)c2c1ccc(Cl)c2Cl` (stereo not drawn) [Example 22, 2,4-Diethyl-7,8-dichloro-3,4-dihydrobenzo[1,2,3]thiadiazine-1,1-dioxide], for which the melting point fell in the range of 118 to 120 °C.

`CC1NN(C)S(=O)(=O)c2c(Cl)cccc21` (stereo not drawn) [Example 23, 2,4-Dimethyl-8-chloro-3,4-dihydrobenzo[1,2,3]thiadiazine-1,1-dioxide] gave a melting point of 128 to 130 °C.

In turn, `CCN1NC(C)c2cccc(Cl)c2S1(=O)=O` (stereo not drawn) [Example 24, 2-Ethyl-8-chloro-4-methyl-3,4-dihydrobenzo[1,2,3]thiadiazine-1,1-dioxide] had a melting point of 79 to 80 °C.

`Cc1cc2c(c(Cl)c1Cl)S(=O)(=O)N(C)NC2C` (stereo not drawn) [Example 25, 7,8-Dichloro-2,4,6-trimethyl-3,4-dihydrobenzo[1,2,3]thiadiazine-1,1-dioxide] registered a melting point of 141 to 142 °C.

In the case of `CC1c2ccc(Cl)c(Cl)c2S(=O)(=O)NN1C` (stereo not drawn) [Example 26, 7,8-Dichloro-3,4-dimethyl-3,4-dihydrobenzo[1,2,3]thiadiazine-1,1-dioxide], the melting point is 194 to 195 °C.

For `CCN1NS(=O)(=O)c2c(ccc(Cl)c2Cl)C1C` (stereo not drawn) [Example 27, 7,8-Dichloro-3-ethyl-4-methyl-3,4-dihydrobenzo[1,2,3]thiadiazine-1,1-dioxide], the melting point lay within 172 to 174 °C.

As for `CCCN1NS(=O)(=O)c2c(ccc(Cl)c2Cl)C1C` (stereo not drawn) [Example 28, 7,8-Dichloro-4-methyl-3-propyl-3,4-dihydrobenzo[1,2,3]thiadiazine-1,1-dioxide], the melting point fell in the range of 164 to 165 °C.

With `CCC1c2ccc(Cl)cc2S(=O)(=O)NN1CC` (stereo not drawn) [Example 29, 3,4-Diethyl-7-chloro-3,4-dihydrobenzo[1,2,3]thiadiazine-1,1-dioxide], the melting point lay in the range of 109 to 111 °C.

In turn, `CCC1c2ccc(Cl)cc2S(=O)(=O)NN1C(C)C` (stereo not drawn) [Example 30, 4-Ethyl-3-isopropyl-7-chloro-3,4-dihydrobenzo[1,2,3]thia diazine-1,1-dioxide] registered a melting point of 99 to 101 °C.

Regarding `Cc1cc(Cl)c(Cl)c2c1C(C)N(C)NS2(=O)=O` (stereo not drawn) [Example 31, 7,8-Dichloro-3,4,5-trimethyl-3,4-dihydrobenzo[1,2,3]thiadiazine-1,1-dioxide], the melting point was in the range of 236 to 238 °C.

The compound `CN1Cc2ccccc2S(=O)(=O)N1` [Example 32, 3-Methyl-3,4-dihydrobenzo[1,2,3]thiadiazine-1,1-dioxide] yielded a melting point of 176 to 178 °C.

On to `CCN1Cc2ccccc2S(=O)(=O)N1` [Example 33, 3-Ethyl-3,4-dihydrobenzo[1,2,3]thiadiazine-1,1-dioxide], for which the melting point was in the range of 146 to 147 °C.

As to `COc1ccc2c(c1)CN(C)NS2(=O)=O` [Example 34, 3-Methyl-6-methoxy-3,4-dihydrobenzo[1,2,3]thiadiazine-1,1-dioxide], the melting point was 186 to 187 °C.

`CCN1Cc2cc(OC)ccc2S(=O)(=O)N1` [Example 35, 3-Ethyl-6-methoxy-3,4-dihydrobenzo[1,2,3]thiadiazine-1,1-dioxide] gave a melting point of 180 to 181 °C.

The compound `CN1Cc2ccc(Cl)c(Cl)c2S(=O)(=O)N1` [Example 36, 7,8-Dichloro-3-methyl-3,4-dihydrobenzo[1,2,3]thiadiazine-1,1-dioxide] registered a melting point of 189 to 190 °C.

Take `CN1Cc2ccc(Cl)cc2S(=O)(=O)N1` [Example 37, 7-chloro-3-methyl-3,4-dihydrobenzo[1,2,3]thiadiazine-1,1-dioxide]: the melting point is 188 to 189 °C.

Take `Cc1cc(Cl)c(Cl)c2c1C(C)N(C(C)C)NS2(=O)=O` (stereo not drawn) [Example 38, 7,8-Dichloro-4,5-dimethyl-3-isopropyl-3,4-dihydrobenzo[1,2,3]thiadiazine-1,1-dioxide]: the melting point was 167 to 168 °C.

Regarding `COc1ccc2c(c1)CN(C)N(C)S2(=O)=O` [Example 39, 2,3-Dimethyl-6-methoxy-3,4-dihydrobenzo[1,2,3]thiadiazine-1,1-dioxide], the melting point fell in the range of 142 to 143 °C.

`CCN1Cc2cc(OC)ccc2S(=O)(=O)N1C` [Example 40, 3-Ethyl-2-methyl-6-methoxy-3,4-dihydrobenzo[1,2,3]thiadiazine-1,1-dioxide] gave a melting point of 123 to 125 °C.

In the case of `CN1Cc2ccccc2S(=O)(=O)N1C` [Example 41, 2,3-Dimethyl-3,4-dihydrobenzo[1,2,3]thiadiazine-1,1-dioxide], the melting point is 143 to 145 °C.

Consider `CCN1Cc2ccccc2S(=O)(=O)N1C` [Example 42, 3-Ethyl-2-methyl-3,4-dihydrobenzo[1,2,3]thiadiazine-1,1-dioxide], for which the melting point lay in the range of 140 to 142 °C.

For `CC1c2ccc(Cl)c(Cl)c2S(=O)(=O)N(C)N1C` (stereo not drawn) [Example 43, 7,8-Dichloro-2,3,4-trimethyl-3,4-dihydrobenzo[1,2,3]thiadiazine-1,1-dioxide], the melting point lay within 135 to 136 °C.
